Several values for one entry are separate records, joined by “and”; a condition that tells them apart may be missing. Equal entries are not always repeated. Entries after “also recorded” stand apart in the source; their conditions may differ.
Key:
[1] = system: Guinea Pig Isolated Hearts; experiment: S-H interval (AV nodal conduction) in guinea pig isolated, Langendorff-perfused paced hearts; conditions: for second-degree AV block (dropped beats): isolated paced hearts, drug alone; for increase in the S-H interval compared to control (no drug): ivabradine 0.1 μM, ranolazine 2 μM, alone or combined, pacing rate of 4 and 5 Hz, FIG. 1
From the text: To test the combined effects of ranolazine and ivabradine on AV conduction, the following experimental procedures were employed.
Guinea pigs (Hartley) of either sex weighing 300-350 g were anesthetized by inhalation of isoflurane. The chest of a guinea pig was cut open, and the heart was quickly removed and rinsed in ice-cold modified Krebs-Henseleit (K-H) solution. The contents of the modified K-H solution were (in mM) 117.9 NaCl, 4.8 KCl, 2.5 CaCl2, 1.18 MgSO4, 1.2 KH2PO4, 0.5 Na2 EDTA, 0.14 ascorbic acid, 5.5 dextrose, 2.0 pyruvic acid (sodium salt), and 25 NaHCO3. The K-H solution was continuously gassed with 95% O2-5% CO2, and the pH was adjusted to a value of 7.4.
To perfuse the heart by the Langendorff method, the transected aorta was slid onto a glass cannula and secured by a ligature. Retrograde perfusion of the aorta was initiated immediately at a constant flow of 10 mL/min with modified K-H solution warmed to 37.0±0.5° C. A side port in the cannula was used to connect the perfusion line to a pressure transducer (AD Instruments, Australia) for measurement of coronary perfusion pressure (CPP). To facilitate the exit of fluid from the left ventricle, the leaflets of the mitral valve were trimmed with fine spring-handled scissors. Hearts were allowed to beat spontaneously in experiments to measure heart rate, or paced at a constant rate using external electrodes, in experiments to measure AV conduction time. After completion of dissection and instrumentation, stimulus-to-H is bundle (S-H) interval was monitored continuously. Each heart was allowed to equilibrate for 20-40 min before the administration of drug. Experimental interventions were always preceded and followed by control measurements.
To facilitate the recording of a drug effect on the S-H interval, parts of the left and right atrial tissues, including the region of the sinoatrial node, were removed, both to decrease the spontaneous heart rate and to expose the atrial septum for electrode placement. A bipolar Teflon-coated electrode was placed in the wall of the intra-atrial septum to pace the heart. […] Stimuli were provided by a stimulation generator (model 48, Grass Instruments, W. Warwick, R I) and delivered to the heart through a stimulus isolation unit as square wave pulses of 3 msec duration and at least twice the threshold intensity.
A His bundle electrogram was recorded using a Teflon-coated unipolar electrode placed in the right side of the interatrial septum adjacent to the AV junction. […]
Ivabradine (Iva), ranolazine (Ran) or the combination thereof was infused to the hearts. Each concentration of Iva was infused for about 20 min to allow a steady-state response to be recorded, whereas each concentration of ranolazine was infused for 10 min to allow a steady-state response to be recorded. […]

male Yorkshire pigs = experiment: A-H, H-V, PR and QT intervals during right atrial pacing in anesthetized pigs; type: in vivo; conditions: for increase in PR interval: ivabradine 0.25 mg/kg, 30 min after ivabradine administration; for effect on atrial-His (A-H) interval: right atrial pacing at 180 beats/min, FIG. 6 left panel; for effect on atrial-His (A-H) interval / effect on PR interval: ivabradine 0.25 mg/kg bolus; for effect on PR interval: right atrial pacing at 180 bpm, FIG. 5 upper panel
Experimental: Data were gathered from male Yorkshire pigs (n=16) weighing 35±2 kg (mean±SEM). The animals were preanesthetized with telazol (4.7 mg/kg, intramuscularly) and then anesthetized with alpha-chloralose (100 mg/kg, i.v., bolus followed by 40 mg/kg/h, i.v., continuous infusion). The animals were intubated and ventilation was maintained between 10-16 breaths/min with volumes between 400-500 mL. Vital signs including core body temperature, heart rate, and oxygen saturation were continuously monitored.
The right and left femoral veins were cannulated with 7Fr introducer sheaths using the Seldinger technique to insert catheters in the right atrial (RA) appendage for pacing and for positioning the intrapericardial catheter. Arterial blood pressure was continuously monitored from a femoral arterial sheath, and intravenous fluids were administered through the ear vein. The electrocardiogram (ECG) was recorded with a Prucka Cardiolab workstation (GE Medical Systems, Milwaukee, Wis.) from atrial and ventricular sites.
Ranolazine was given as a 2.4 mg/kg, i.v., bolus followed by continuous infusion of 0.135 mg/kg/min, i.v.
A nonsteerable, quadripolar electrode catheter (Bard Electrophysiology, Lowell Mass.) was placed in the right atrium (RA) via the femoral vein and a second quadripolar electrode catheter in the right ventricle via the jugular vein. A bipolar electrode was placed in the non-coronary cusp of the aorta through the left carotid artery to record the His bundle electrogram. A pigtail catheter was inserted in the left ventricle via the left femoral artery to record and calculate contractility [left ventricular dP/dt]. Transatrial access was employed to deliver acetylcholine (ACh) into the pericardial space. Specifically, a small puncture was made in the RA appendage with the stiff end of a coronary angioplasty guidewire (0.014-inch Wizdom guidewire, Cordis, Miami, Fla., USA) placed within the lumen of a soft infusion catheter (0.038-inch SOS straight-tip, open-ended angiographic guidewire, Bard Electrophysiology). This wire-within-wire system was advanced as a unit into an 8Fr multipurpose guide catheter (MP2, Boston Scientific, Boston Mass.) previously positioned in the RA appendage via a femoral vein under fluoroscopic guidance and into the pericardial space. The infusion catheter was left in the pericardial space for delivery of ACh and the inner guidewire was removed. Conformation of the infusion catheter on fluoroscopy to the curvature of the heart verified its location within the pericardial space. All of the pericardial fluid was then aspirated with the infusion catheter. Intrapericardial access is associated with a hematocrit <2%, indicating minimum trauma from the atrial puncture (Kumar et al., J Cardiovasc Electrophysiol 2009; 20:796-802). The presence of acetylcholinesterase can rapidly degrade ACh and prevent a sustained response to this neurotransmitter.
The electrical stimulation protocol described below was performed in the control state and after the ivabradine bolus and after ranolazine administration and the combination of ranolazine and ivabradine. Burst pacing was performed after ACh injection into the pericardium and AF was invariably elicited. Ventricular rate during AF was determined by counting the R waves during the 6th minute of AF. Two episodes of AF separated by 10 min were induced to establish control levels.
A Bloom stimulator (Bloom Associates, Reading Pa.) was used to deliver constant-current rectangular stimuli for fixed-rate pacing as well as for delivering premature stimuli. To elicit AF, a burst pacing stimulation with a cycle length of 200 msec was performed. A-H, His-ventricular (H-V), PR and QT interval measurements were made during right atrial pacing at 130 and 180 beats/min.
The statistical tests were carried out with a SAS statistical package (SAS Institute, Cary, N.C.). […]

[2] = ivabradine 0.25 mg/kg i.v., ranolazine 2.4 mg/kg bolus + 0.135 mg/kg/min, pacing 130 beats/min
[3] = larger series, ivabradine 0.25 mg/kg i.v., ranolazine 2.4 mg/kg bolus + 0.135 mg/kg/min, pacing 180 beats/min, FIG. 6
[4] = pacing 130 beats/min, ranolazine 2.4 mg/kg bolus + 0.135 mg/kg/min
[5] = pacing 180 beats/min, ranolazine 2.4 mg/kg bolus + 0.135 mg/kg/min
[6] = pacing rate 180 beats/min, FIG. 2 (first series)

## COc1ccccc1OCC(O)CN1CCN(CC(=O)Nc2c(C)cccc2C)CC1 (racemic) [ranolazine, (±)-N-(2,6-dimethylphenyl)-4-[2-hydroxy-3-(2-methoxyphenoxy)-propyl]-1-piperazineacetamide]
[1]
  second-degree AV block (dropped beats): without causing second-degree AV block
  increase in the S-H interval compared to control (no drug): small but significant increase
Male Yorkshire pigs; [2]
  increase in A-H interval: 2.0 ± 2.6 ms
Male Yorkshire pigs; [3]
  increase in A-H interval: 13.8 ± 3.9 ms
Male Yorkshire pigs; male, Yorkshire, pig, in vivo
  HV interval after drug: 35 ms
  QT interval after drug: 282 ms
Male Yorkshire pigs; [4]
  increase in PR interval: 5 ± 1.8 ms
Male Yorkshire pigs; [5]
  increase in PR interval: 19 ± 2.8 ms
Male Yorkshire pigs; [6]
  increase in A-H interval: 18 ms and 18.4 ms
Male Yorkshire pigs; representative experiment FIG. 7, pacing 180 beats/min, before drug 100 msec, ranolazine, then ivabradine 0.25 mg/kg
  A-H interval after drug: 107 ms
Male Yorkshire pigs; representative experiment FIG. 7, pacing 180 beats/min, before drug 123 msec
  PR interval after drug: 131 ms
Male Yorkshire pigs
  effect on atrial-His (A-H) interval: did not
  effect on PR interval: increased PR interval

## COc1cc2c(cc1OC)CC(=O)N(CCCN(C)C[C@H]1Cc3cc(OC)c(OC)cc31)CC2 [ivabradine, 3-{3-[{[(7S)-3,4-dimethoxybicyclo[4.2.0]octa-1,3,5-trien-7-yl]methyll}-(methyl)amino]propyl}-7,8-dimethoxy-1,3,4,5-tetrahydro-2H-3-benzapenin-2-one]
[1]
  second-degree AV block (dropped beats): without causing second-degree AV block
  increase in the S-H interval compared to control (no drug): small but significant increase
Male Yorkshire pigs; [2]
  increase in A-H interval: 15.5 ms
Male Yorkshire pigs; [3]
  increase in A-H interval: 22.0 ± 3.5 ms
Male Yorkshire pigs; [4]
  increase in PR interval: 16 ± 3.9 ms
Male Yorkshire pigs; [5]
  increase in PR interval: 20 ± 3.5 ms
Male Yorkshire pigs; [6]
  increase in A-H interval: 31 ms and 31.2 ms
Male Yorkshire pigs; right atrial pacing at 130 and 180 beats/min, FIG. 5 lower panel
  effect on QT interval: not altered; also recorded: neither drug nor their combination altered QT interval
Male Yorkshire pigs; right atrial pacing at 130 and 180 beats/min, FIG. 6 right panel
  effect on His-ventricular (H-V) interval: unchanged; also recorded: neither drug nor their combination altered His-ventricular (H-V) interval
Male Yorkshire pigs
  effect on atrial-His (A-H) interval: increased atrial-His (A-H) interval
  effect on PR interval: increased PR interval
